In patent US20250346584A1, “NOVEL KAPPA OPIOID LIGANDS” (The Scripps Research Institute, priority 2012, published 2025) one finds IC50 data, which are given here for 33 molecules.

By IC50 is commonly meant the point on the concentration scale where inhibition reaches its midpoint.

The target in the test is kappa opioid receptor (OPRK1) (Homo sapiens (Human), UniProt P41145). Description: OPRK1 antagonist assay (b-arrestin-2-TEV / b-lactamase reporter cell line, EC80 U-50488 challenge). In kind it is cell-based. The following applies: read-out: IC50 nM (% inhib if other than 50%); antagonist mode vs EC80 U-50488; NA = not active at concentrations up to 10 μM.
Chain of kappa opioid receptor (OPRK1) (P41145 whole entry): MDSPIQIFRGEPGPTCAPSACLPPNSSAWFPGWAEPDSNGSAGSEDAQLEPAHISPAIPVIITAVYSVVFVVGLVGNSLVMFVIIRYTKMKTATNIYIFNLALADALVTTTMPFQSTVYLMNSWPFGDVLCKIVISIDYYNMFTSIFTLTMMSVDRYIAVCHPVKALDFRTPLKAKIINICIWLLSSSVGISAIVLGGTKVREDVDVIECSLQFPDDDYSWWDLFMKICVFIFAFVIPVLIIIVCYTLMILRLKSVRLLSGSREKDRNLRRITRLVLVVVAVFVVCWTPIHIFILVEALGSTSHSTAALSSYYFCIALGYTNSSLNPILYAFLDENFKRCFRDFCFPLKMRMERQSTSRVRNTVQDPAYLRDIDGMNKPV

Take `Cc1nc(-c2cc3cc(C)c(F)cc3nc2N2CCC(N[C@H]3CCCC[C@@H]3O)CC2)no1` [compound 506]: the IC50 came to 48 nM.
Consider `Cc1nc(-c2cc3cc(C)c(F)cc3nc2N2CCC(NC3CCOCC3)CC2)no1` [compound 507], for which the IC50 is 43 nM.
Regarding `CO[C@H]1CN(c2nc3cc(F)ccc3cc2-c2nc(C)no2)CC[C@H]1NC1CCCCC1` [compound 508], the IC50 amounted to 5 nM.
On to `Cc1cc(-c2nc(C3CC3)no2)c(N2CCC(NCC(C)C)CC2)nn1` [compound 509], for which the IC50 was 30 nM.
Turning to `Cc1nc(-c2cc3ccc(F)c(C)c3nc2N2CCC(N[C@H]3CCCC[C@@H]3O)CC2)no1` [compound 510], the IC50 was determined as 115 nM.
On to `Cc1nc(-c2cc3ccc(F)c(C)c3nc2N2CCC(NC3CCOCC3)CC2)no1` [compound 511], for which the IC50 came to 227 nM.
The value for `Cc1nc(-c2cc3cc(C)c(F)cc3nc2N2CCC(NC3CCCC3)CC2)no1` [compound 512] was 12 nM; that for `Cc1nc(-c2cc3cc(C)c(F)cc3nc2N2CCC(NCC(C)C)CC2)no1` [compound 513] was 27 nM.
For the molecule `CO[C@@H]1CN(c2nc3cc(F)ccc3cc2-c2nc(C)no2)CC[C@@H]1NC1CCCCC1` [compound 514], the IC50 is 55 nM.
As for `Cc1noc(-c2cc3ccc(F)cc3nc2N2CCC(NC3CCCCC3)CC2)n1` [compound 515], the IC50 is 7 nM.
`Cc1ccc2nc(N3CCC(N[C@H]4CCCC[C@@H]4O)CC3)c(-c3ccncn3)cc2c1` [compound 516]: the IC50 stood at 564 nM.
With `Cc1cnc(N2CCC(NC3CCCCC3)CC2)c(-c2ccncn2)c1` [compound 517], the IC50 came to 1140 nM.
In the case of `Cc1ccc2nc(N3CCC(NC4CCOCC4)CC3)c(-c3nc(C)no3)nc2c1` [compound 518], the IC50 came to 410 nM.
Take `CO[C@H]1CN(c2nc3ccc(C)cc3nc2-c2nc(C)no2)CC[C@H]1NC1CCCCC1` [compound 519]: the IC50 was found to be 95 nM.
The value for `CO[C@H]1CN(c2nc3cccc(F)c3cc2-c2nc(C)no2)CC[C@H]1NC1CCCCC1` [compound 520] was 19 nM; that for `CO[C@H]1CN(c2nc3ccc(C)cc3cc2-c2nc(C)no2)CC[C@H]1NC1CCC(F)(F)CC1` [compound 521] was 278 nM; that for `CO[C@@H]1CN(c2nc3ccc(C)cc3cc2-c2nc(C)no2)CC[C@@H]1NC1CCOCC1` [compound 522] was 67 nM.
The figure for `CCc1ccc2nc(N3CCC(N[C@H](C)CC)CC3)c(-c3nc(C)no3)cc2c1` [compound 525] is 17 nM.
On to `Cc1noc(-c2cc3c(F)cccc3nc2N2CCC(NCC(C)C)CC2)n1` [compound 526], for which the IC50 is 49 nM.
The value for `Cc1noc(-c2cc3ccc(F)cc3nc2N2CCC(NCC(C)C)CC2)n1` [compound 527] was 20 nM.
Turning to `Cc1noc(-c2cc3ccc(F)cc3nc2N2CCC(NC3CCOCC3)CC2)n1` [compound 528], the IC50 was 23 nM.
For `CO[C@H]1CN(c2nc3ccc(C)cc3cc2-c2nc(C)no2)CC[C@H]1NCC(C)C` [compound 529], the IC50 is 369 nM.
`CO[C@H]1CN(c2nc3ccc(F)cc3cc2-c2nc(C)no2)CC[C@H]1NCC(C)C` [compound 530]: the IC50 turned out to be 5100 nM.
`Cc1ccc2nc(N3CCC(NC4CCCCC4)CC3)c(-c3ccncn3)cc2c1` [compound 532]: the IC50 amounted to 334 nM.
The value for `Cc1ccc2nc(N3CCC(NC4CCCC4)CC3)c(-c3ccncn3)cc2c1` [compound 533] was 263 nM; that for `Cc1ccc2nc(N3CCC(NCC(C)C)CC3)c(-c3ccncn3)cc2c1` [compound 534] was 600 nM; that for `Cc1noc(-c2cc3ccc(Cl)cc3nc2N2CCC(NC3CCCCC3)CC2)n1` [compound 536] was 19 nM.
Consider `CO[C@H]1CN(c2nc3cc(Cl)ccc3cc2-c2nc(C)no2)CC[C@H]1NC1CCCCC1` [compound 537], for which the IC50 worked out at 12 nM.
`CO[C@H]1CN(c2nc3cc(F)ccc3cc2-c2nc(C)no2)CC[C@H]1NCC(C)C` [compound 538]: the IC50 was found to be 970 nM.
On to `COC(=O)c1cc(C)ccc1N1CCC(NC2CCCCC2)C(OC)C1` (stereo not drawn) [compound 539], for which the IC50 is 3700 nM.
Regarding `CCOC(=O)c1cc(Br)cnc1N1CC[C@H](NC2CCCCC2)[C@@H](O)C1` [compound 540], the IC50 worked out at 16 nM.
The value for `Cc1noc(-c2cc3ccc(Cl)cc3nc2N2CCC(NCC(C)C)CC2)n1` [compound 541] was 45 nM; that for `Cc1noc(-c2cc(C)c(C)nc2N2CC[C@H](NC3CCCCC3)[C@@H](O)C2)n1` [compound 543] was 32 nM.
